Experiment: Inhibition of human CYP1A1 expressed in HEK293 cells assessed as reduction in CYP1A1 mediated B[alpha]P-7,8- dihydrodiol induced-toxicity by measuring EC50 at 3 times of IC50 concentration by MTT assay (Rvb = 1.4 +/ 0.4 uM)

Compound | EC50
O=c1cc(-c2ccccc2)oc2c1ccc1occc12 [LANCEOLATIN B] | 14.4 µM
COc1c(C(=O)/C=C(\O)c2ccccc2)ccc2occc12 [Pongamol] | 10.2 µM
COc1c(-c2ccc3c(c2)OCO3)oc2c(ccc3occc32)c1=O [Pongapin] | 14.8 µM
